Entries after “also recorded” stand apart in the source; their conditions may differ.
Experiments:
TRN neurons = test: Spontaneous EPSC recordings from TRN neurons, Ptchd1 KO mice; assay type: cell-based; conditions: LY379268, with PTX
Experimental: (§1) For conducting slice electrophysiology analysis, whole-cell patch-clamp recordings were performed using horizontal slices for the rebound bursting assays and angled-coronal thalamocortical slices for the synaptic optogenetics experiments (Agmon et al., 1991). 21-35 day old male C57BL6 mice and Ptchd1 Y/− (knockout) mice were used. Animals were transcardially perfused under isoflurane anesthesia with an ice-cold cutting solution (194 mM Sucrose, 30 mM NaCl, 4.5 mM KCl, 1.2 mM NaH2PO4, 10 mM Glucose, 2 mM MgCl2, 0.2 mM CaCl2, and 26 mM NaHCO3). Mice were then decapitated and the brains were carefully dissected out. Both cerebellum and olfactory bulb were removed from the brain and were placed and glued onto the stage of a Leica Vibratome with the ventral surface down and the pial surface towards the blade. 250 micron thick slices containing the TRN were then collected and recovered in regular artificial cerebrospinal fluid (aCSF; 119 mM NaCl, 2.3 mM KCl, 1 mM NaH2PO4; 11 mM Glucose, 1.3 mM MgCl2, 2.5 mM CaCl2), 26 mM NaHCO3) heated to 32° C. for 10 minutes and then at room temperature for at least 1 hr. All buffers were continuously bubbled with 95% O2/5% C02. Slices were then transferred to a submersion recording chamber where they were perfused with aCSF at a rate of 2 ml/min at room temperature. […]

Ptchd1 KO TRN neurons = test: Whole-cell patch-clamp rebound burst firing in acute brain slices, Ptchd1 KO mice; assay type: cell-based; conditions: LY379268 1 μM, holding potentials −85 mV to −50 mV
Experimental: as §1

Ptchd1 KO mice = test: Auditory GO/NO GO noise filtering test, Ptchd1 KO mice; assay type: in vivo; conditions: LY379268 5 mg/kg i.p.
Experimental: Behavioral Training and Testing was conducted. In brief, behavioral training and testing took place in grid-floor mounted, custom-built enclosures made of acrylic plastic (dimensions in cm: length: 15.2; width: 12.7; height: 24). All enclosures contained custom-designed operant ports, each of which was equipped with an IR LED/IR phototransistor pair (Digikey, Thief River Falls, Minn.) for nose-poke detection. Trial initiation was achieved through an initiation port mounted on the grid floor 6 cm away from the ‘response ports’ located at the front of the chamber. A pair of electrostatic speakers (Tucker Davis Technologies) producing the auditory stimuli were placed outside of the training apparatus and sound stimuli were conveyed via cylindrical tubes to apertures located at either side of the initiation port, allowing delivery of stereotypical stimuli across trials. All stimuli across tasks were generated by a TDT Rx8 sound system (Tucker-Davis Technologies, Alachua, Fla.). Sound stimuli were recorded and assessed for intensity using a prepolarized icp array microphone (PCB Piezotronics, Depew, N.Y.) after which frequency production was equalized using a software-based calibration via SigCalRP (Tucker-Davis Technologies, Alachua Fla.). […]
The sequence of “NO GO” stimuli followed a pre-determined pseudorandomized sequence which was shifted across testing sessions. […]

WT TRN neurons = test: Whole-cell patch-clamp rebound burst firing in acute brain slices, WT mice; assay type: cell-based
Experimental: For conducting slice electrophysiology analysis, whole-cell patch-clamp recordings were performed using horizontal slices for the rebound bursting assays and angled-coronal thalamocortical slices for the synaptic optogenetics experiments (Agmon et al., 1991). 21-35 day old male C57BL6 mice and Ptchd1 Y/− (knockout) mice were used. Animals were transcardially perfused under isoflurane anesthesia with an ice-cold cutting solution (194 mM Sucrose, 30 mM NaCl, 4.5 mM KCl, 1.2 mM NaH2PO4, 10 mM Glucose, 2 mM MgCl2, 0.2 mM CaCl2, and 26 mM NaHCO3). Mice were then decapitated and the brains were carefully dissected out. Both cerebellum and olfactory bulb were removed from the brain and were placed and glued onto the stage of a Leica Vibratome with the ventral surface down and the pial surface towards the blade. 250 micron thick slices containing the TRN were then collected and recovered in regular artificial cerebrospinal fluid (aCSF; 119 mM NaCl, 2.3 mM KCl, 1 mM NaH2PO4; 11 mM Glucose, 1.3 mM MgCl2, 2.5 mM CaCl2), 26 mM NaHCO3) heated to 32° C. for 10 minutes and then at room temperature for at least 1 hr. All buffers were continuously bubbled with 95% O2/5% C02. Slices were then transferred to a submersion recording chamber where they were perfused with aCSF at a rate of 2 ml/min at room temperature. Patch recording pipettes were pulled using a Flaming/Brown micropipette puller (Sutter Instruments) and Borosilicate glass (KG33, King Precision Glass). The DC resistances were ˜4-6 MΩ. Potassium methanesulfonate based internal solution (140 mM KMeSO3; 10 mM KCl; 10 mM HEPES; 0.1 mM EGTA; 4 mM Mg-ATP; 0.2 mM Na-GTP; 10 mM hosphocreatine) was used. Neurons were visualized using infrared differential interference contrast (IR-DIC) microscopy (Olympus, BX51W1) with an upright microscope digital camera.
The recordings were made with a microelectrode amplifier with bridge and voltage clamp modes of operation (Multiclamp 700B, Molecular Devices, San Jose, Calif., USA). Signals were low-pass filtered at 2 kHz and sampled at 10-20 kHz with a Digidata 1440A (Molecular Devices, San Jose, Calif., USA). Data were stored on a computer for subsequent off-line analysis. Cells with the series resistance (Rs, typically 8-12 MΩ) changed by >20% were excluded for data analysis. In addition, cells with Rs more than […] at any time during the recordings were discarded.

[1] = system: low-threshold T-type Ca2+ channels; test: T type current recording in TRN neurons; assay type: cell-based, mice; conditions: in the presence of LY379268
Experimental: For conducting slice electrophysiology analysis, whole-cell patch-clamp recordings were performed using horizontal slices for the rebound bursting assays and angled-coronal thalamocortical slices for the synaptic optogenetics experiments (Agmon et al., 1991). 21-35 day old male C57BL6 mice and Ptchd1 Y/− (knockout) mice were used. Animals were transcardially perfused under isoflurane anesthesia with an ice-cold cutting solution (194 mM Sucrose, 30 mM NaCl, 4.5 mM KCl, 1.2 mM NaH2PO4, 10 mM Glucose, 2 mM MgCl2, 0.2 mM CaCl2, and 26 mM NaHCO3). Mice were then decapitated and the brains were carefully dissected out. Both cerebellum and olfactory bulb were removed from the brain and were placed and glued onto the stage of a Leica Vibratome with the ventral surface down and the pial surface towards the blade. […]
The channel conductance of SK channels and low-threshold T-type Ca2+ channels at different holding membrane potentials ranging from −80 mV to −50 mV in the presence or absence of SK channel blockers was evaluated in order to further determine how the activation of mGluR2/3 in TRN neurons enhanced the rebound bursting.

Q: For N[C@@]1(C(=O)O)COC2C(C(=O)O)C21 (stereo in doubt) [LY379268, (1R,4R,5S,6R)-4-Amino-2-oxabicyclo[3.1.0] hexane-4,6-dicarboxylic acid], which “frequency of sEPSCs” value (TRN neurons) is on record?
A: The value was “significantly reduced the frequency”.

Q: What about the “number of rebound burst firings” value (Ptchd1 KO TRN neurons) of the same compound?
A: Its value is “significantly increased the number of rebound repetitive bursting; also recorded: significantly increased the number of rebound burst firings; also recorded: Significant changes were found between −72 mV and −67 mV holding potential”.

Q: What about the “percentage of correct responses, auditory stimuli embedded with noise” value (Ptchd1 KO mice) of the same compound?
A: Its value is “fully rescued noise filtering deficits in the Ptchd1 KO to control level; also recorded: rescued to control levels”.

Q: And the “rebound burst firing, occlusion experiment” value (WT TRN neurons; LY379268 applied in the presence of (after pretreatment with) ML337)?
A: The value was “no change in repetitive bursting; also recorded: occluded in the presence of ML337”.

Q: What about the “number of rebound burst firings” value (WT TRN neurons; WT TRN neurons, LY379268 1 μM, after somatic hyperpolarization pulse, holding potentials −80 mV to −50 mV) of the same compound?
A: The value was “significant increase in the repetitive rebound bursting; also recorded: increase in the number of rebound burst firings; also recorded: Significant changes were detected in a membrane holding potentials between −70 mV and −60 mV; also recorded: Significant changes were detected at membrane holding potentials as indicated”.

Q: What about the “current mediated by T (max inward currents, T-type Ca2+ channel conductance)” value [1] of the same compound?
A: The value was “significantly increased”.

From patent US20220313650A1, “METHODS FOR TREATING NEURODEVELOPMENTAL DISORDERS” (The Broad Institute, Inc., priority 2019, published 2022)
